# Laboratory results: patent US11981618B2, “P62 ligand compound, and composition for preventing, ameliorating or treating proteinopathies comprising the same” (AUTOTAC INC., priority 2018, dated 2024)
# “Also recorded” adds a separate entry of the source.
# Tests used:
# [1] = test system: LC3; test: Autophagy activity in cultured cells by immunoblotting using LC3 as a marker; format: cell-based, human; conditions: HeLa; for autophagy activity (level of LC3), control compounds: different concentrations and different times, FIG. 5
# Experimental: In order to evaluate the autophagy activity efficacy by the compounds (Examples 1-19), HeLa cell line, which is a cell line derived from a cervical cancer patient, was cultured using a DMEM medium containing 10% FBS and 1% streptomycin/penicillin in an incubator with 5% carbon dioxide. As representative compounds among the present compounds, YOK-1107, YOK-4404 and YOK-1104 were selected. In order to measure autophagy activity according to the treatment with these selected representative compounds, the respective cells were dispensed into 6 well plates. Additional cultures were performed […] so that the cells were completely attached to the surface of the plate. To find the concentration at which the respective compounds could increase the phenomenon of autophagy, the test compounds were diluted at 1, 2, 5, 10 and 20 μM and treated. After treatment with the respective compounds, the cells were cultured again in a cell incubator for 24 hours, and then the cells were collected. To extract proteins from the collected cells, 100 ul of lysis buffer (20 mM Tris (pH 7.4), 150 mM NaCl, 1% Triton X-100, 2 mM NaF, 2 mM EDTA, 2 mM beta-glycerophosphate, 5 mM sodium orthovanadate, 1 mM PMSF, leupeptin, aprotinin) was injected into each sample, and cells were lysed. Based on the measured total protein concentration, a sample buffer was added to each sample and allowed to react at 100° C. for 5 minutes. 5 ul was taken from the samples after the reaction, and dispensed into each well of acrylamide gel, and then immunoblotting was performed.
# In order to investigate the autophagy activity efficacy by the compounds (Examples 1-19), immunoblotting was performed in the same manner as in Experimental Example 2 using LC3 as a marker. As for the difference, in order to evaluate the treatment time required for activation and the activity retention time, as the representative compounds selected among the present compounds, 5 μM of YOK-1107, YOK-1204, YOK-1304, YOK-2204, YOK-3304, […] treated for 1, 3, 6, 12, 24, 48 hours. On the other hand, as the representative compounds selected among the compounds of the present invention, […] YOK-1107, YOK-1109, YOK-2207, YOK-2209, YT-4-1, YT-4-2, YT-6-1, YT-6-2, YT-6-8, YT-6-7, YT-9-1, YT-9-2 were treated for 24 hours.
# In order to investigate the autophagy activity efficacy of control compounds, immunoblotting was performed in the same manner as in Experimental Example 2 by using LC3 as a marker. As the control compounds, compounds having the following structure were used.
# [2] = biological target: T1, p62 protein (Homo sapiens, UniProt Q13501); test: Oligomerization activity of p62 protein in cultured cells by immunoblotting; format: cell-based; conditions: HEK293 cell lysate treated with test compounds at room temperature for 2 hours; immunoblot, FIG. 2
# T1 construct: endogenous in cells; host or cells: HEK293 (cell lysate treated with compounds)
# Excerpt: In order to evaluate the p62 protein oligomerization activity efficacy by the compounds (Examples 1-19), HEK293 cell line, which is human embryonic kidney-derived cell, was collected. As representative compounds among the present compounds, YOK-1104, YOK-2204, YOK-3304, YOK-1204, YOK-4404, YOK-1107, YOK-1109, YOK-2207, YOK-2209, YT-4-1, YT-4-2, YT-6-1, YT-6-2, YT-6-7, YT-6-8, YT-9-1, YT-9-2 were selected. In order to measure intracellular p62 protein activation and oligomerization according to the treatment with these selected representative compounds, the respective cells were dispensed into a pi dish. The cells were collected after further culturing for 24 hours so that the cells were completely attached to the surface of the plate. 100 ul of lysis buffer (20 mM Tris, pH 7.4), 150 mM NaCl, 1% Triton X-100, 2 mM NaF, 2 mM EDTA, 2 mM beta-glycerophosphate, 5 mM sodium orthovanadate, 1 mM PMSF, leupeptin, aprotinin) were injected into each sample and the cells were lysed. Based on the measured total protein concentration, each sample was treated with test compounds at room temperature for 2 hours, and then a sample buffer was added and allowed to react at 95° C. for 10 minutes. 25 ul was taken from the samples after the reaction, and dispensed into each well of acrylamide gel, and then immunoblotting was performed.
# [3] = 1, 2, 5, 10 and 20 μM, 24 hours, FIG. 3
# [4] = 5 μM, treated for 1, 3, 6, 12, 24, 48 hours, FIG. 4
# [5] = treated for 24 hours (concentration not given), FIG. 4
# T1 sequence (Q13501 whole entry): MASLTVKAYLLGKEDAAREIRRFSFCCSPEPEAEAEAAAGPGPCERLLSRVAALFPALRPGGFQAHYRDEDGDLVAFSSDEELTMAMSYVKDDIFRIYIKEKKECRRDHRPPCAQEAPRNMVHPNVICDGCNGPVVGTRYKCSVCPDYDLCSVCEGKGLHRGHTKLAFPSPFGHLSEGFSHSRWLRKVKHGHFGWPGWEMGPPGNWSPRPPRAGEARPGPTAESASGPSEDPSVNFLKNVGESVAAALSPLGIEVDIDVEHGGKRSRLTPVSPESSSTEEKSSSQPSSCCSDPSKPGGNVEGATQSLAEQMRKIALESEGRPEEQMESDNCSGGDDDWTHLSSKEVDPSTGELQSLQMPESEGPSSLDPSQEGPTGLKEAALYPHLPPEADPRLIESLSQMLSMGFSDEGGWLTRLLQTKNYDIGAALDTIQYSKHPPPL
SMILES,"autophagy activity (level of LC3), control compounds [1]","p62 protein oligomerization activity (p62 monomer, oligomers and high-molecular aggregates) [2]","autophagy activity (level of LC3) [1, 5]",further results
"O=Cc1ccc(OCc2ccccc2)c(OCc2ccccc2)c1 [Example 1101, 3,4-bis(benzyloxy)benzaldehyde, reference compound]",do not increase autophagy activity,,,
"Oc1ccc(OCc2ccccc2)c(OCc2ccccc2)c1 [Example 1102, 3,4-bis(benzyloxy)phenol, reference compound]",do not increase autophagy activity,,,
"c1ccc(COc2ccc(OC[C@H]3CO3)cc2OCc2ccccc2)cc1 [Example 1103, (R)-2-((3,4-bis(benzyloxy)phenoxy)methyl)oxirane, reference compound]",do not increase autophagy activity,,,
"O=Cc1ccc(OCc2ccccc2)c(OCCc2ccccc2)c1 [Example 1201, 4-(benzyloxy)-3-phenethoxybenzaldehyde, reference compound]",do not increase autophagy activity,,,
"Oc1ccc(OCc2ccccc2)c(OCCc2ccccc2)c1 [Example 1202, 4-(benzyloxy)-3-phenethoxyphenol, reference compound]",do not increase autophagy activity,,,
"c1ccc(CCOc2cc(OC[C@H]3CO3)ccc2OCc2ccccc2)cc1 [Example 1203, (R)-2-((4-(benzyloxy)-3-phenethoxyphenoxy)methyl)oxirane, reference compound]",do not increase autophagy activity,,,
"O=Cc1ccc(OCc2ccccc2)c(OCCCc2ccccc2)c1 [Example 1301, 4-(benzyloxy)-3-(3-phenylpropoxy)benzaldehyde, reference compound]",do not increase autophagy activity,,,
"Oc1ccc(OCc2ccccc2)c(OCCCc2ccccc2)c1 [Example 1302, 4-(benzyloxy)-3-(3-phenylpropoxy)phenol, reference compound]",do not increase autophagy activity,,,
"O=Cc1ccc(OCc2ccccc2)c(OCCCCc2ccccc2)c1 [Example 1401, 4-(benzyloxy)-3-(4-phenylbutoxy)benzaldehyde, reference compound]",do not increase autophagy activity,,,
"Oc1ccc(OCc2ccccc2)c(OCCCCc2ccccc2)c1 [Example 1402, 4-(benzyloxy)-3-(4-phenylbutoxy)phenol, reference compound]",do not increase autophagy activity,,,
"O=Cc1ccc(OCCc2ccccc2)c(OCCc2ccccc2)c1 [Example 2201, 3,4-diphenethoxybenzaldehyde, reference compound]",do not increase autophagy activity,,,
"Oc1ccc(OCCc2ccccc2)c(OCCc2ccccc2)c1 [Example 2202, 3,4-diphenethoxyphenol, reference compound]",do not increase autophagy activity,,,
"O=Cc1ccc(OCCCc2ccccc2)c(OCCCc2ccccc2)c1 [Example 3301, 3,4-bis(3-phenylpropoxy)benzaldehyde]",,,,"autophagy activity (level of LC3) [1, 3]: increasing the autophagy activity"
"Oc1ccc(OCCCCc2ccccc2)c(OCCCCc2ccccc2)c1 [Example 4402, 3,4-bis(4-phenylbutoxy)phenol, reference compound]",do not increase autophagy activity,,,
"CC(C)NC[C@@H](O)COc1ccc(OCc2ccccc2)c(OCc2ccccc2)c1 [YOK-1104, (R)-1-(3,4-bis(benzyloxy)phenoxy)-3-(isopropylamino)propan-2-ol]",,increasing the p62 protein oligomerization activity,,"autophagy activity (level of LC3) [1, 3]: increasing the autophagy activity"
"N=C(N)NC[C@@H](O)COc1ccc(OCc2ccccc2)c(OCc2ccccc2)c1 [YOK-1107, (R)-1-(3-(3,4-bis(benzyloxy)phenoxy)-2-hydroxypropyl)guanidine]",,increasing the p62 protein oligomerization activity,gradually increased,"autophagy activity (level of LC3) [1, 4]: gradually increased; also recorded: increasing the autophagy activity; autophagy activity (level of LC3) [1, 3]: increasing the autophagy activity"
"N=C(N)NCCNC[C@@H](O)COc1ccc(OCc2ccccc2)c(OCc2ccccc2)c1 [YOK-1109, (R)-1-(2-((3-(3,4-bis(benzyloxy)phenoxy)-2-hydroxypropyl)amino)ethyl)guanidine]",,increasing the p62 protein oligomerization activity,gradually increased,
"CC(C)NC[C@@H](O)COc1ccc(OCc2ccccc2)c(OCCCc2ccccc2)c1 [YOK-1304, (R)-1-(4-(benzyloxy)-3-(3-phenylpropoxy)phenoxy)-3-(isopropylamino)propan-2-ol]",,,,"autophagy activity (level of LC3) [1, 4]: gradually increased; also recorded: increasing the autophagy activity"
"N=C(N)NC[C@@H](O)COc1ccc(OCCc2ccccc2)c(OCCc2ccccc2)c1 [YOK-2207, (R)-1-(3-(3,4-diphenethoxyphenoxy)-2-hydroxypropyl)guanidine]",,increasing the p62 protein oligomerization activity,gradually increased,
"N=C(N)NCCNC[C@@H](O)COc1ccc(OCCc2ccccc2)c(OCCc2ccccc2)c1 [YOK-2209, (R)-1-(2-((3-(3,4-diphenethoxyphenoxy)-2-hydroxypropyl)amino)ethyl)guanidine]",,increasing the p62 protein oligomerization activity,gradually increased,
"CC(C)NC[C@@H](O)COc1ccc(OCc2ccc(Cl)cc2)c(OCc2ccc(Cl)cc2)c1 [YT-4-1, (R)-1-(3,4-bis((4-chlorobenzyl)oxy)phenoxy)-3-(isopropylamino)propan-2-ol]",,increasing the p62 protein oligomerization activity,gradually increased,
"CC(C)NC[C@@H](O)COc1ccc(OCc2ccc(F)cc2)c(OCc2ccc(F)cc2)c1 [YT-4-2, (R)-1-(3,4-bis((4-fluorobenzyl)oxy)phenoxy)-3-(isopropylamino)propan-2-ol]",,increasing the p62 protein oligomerization activity,gradually increased,
OCCNC[C@@H](O)COc1ccc(OCc2ccc(Cl)cc2)c(OCc2ccc(Cl)cc2)c1 [YT-6-1],,increasing the p62 protein oligomerization activity,gradually increased,
OCCNC[C@@H](O)COc1ccc(OCc2ccc(F)cc2)c(OCc2ccc(F)cc2)c1 [YT-6-2],,increasing the p62 protein oligomerization activity,gradually increased,
